Data reported in PMC11489250, “Optimized methods for measuring competitive binding of chemical substances to thyroid hormone distributor proteins transthyretin and thyroxine binding globulin” (Archives of Toxicology, 2024).
Read-outs that look alike come from different tables or passages of the source.

Columns and labels:
[1] = target: T1, Human TTR (Homo sapiens, UniProt P02766); assay: Optimized competitive TTR-binding assay with FITC-T4 (fluorescence intensity readout); settings: for IC20: read-out: TTR IC20; for T4EQ concentration (TTR binding): T4EQi = highest human blood concentration x T4-REPi; for Contribution to T4EQ concentration (TTR binding): mixture of highest human blood concentrations of five model compounds
T1 construct: Transthyretin (prealbumin, TTR) >95% from human plasma; purchased Sigma Aldrich (Zwijndrecht, The Netherlands); host or cells: human plasma
Method: All TTR-binding experiments were performed in black 96-well polystyrene nonbinding plates. Experimental wells and background wells were prepared in triplicate per plate. […] Fluorescence intensity (FI) was measured at λex = 485 ± 20 nm and λem = 528 ± 20 nm (CLARIOstar Plus microplate reader, BMG LABTECH).
To test the effect of the change in temperature and incubation time, a saturation experiment (N = 3, n = 3) was performed in Tris–HCl buffer (0.1 M Tris (Thermo Scientific, Rockford, USA), 0.1 M NaCl (Merck KGaA, Darmstadt, Germany), 1 mM EDTA (VWR International, B.V. Amsterdam, The Netherlands); pH 8.0). […] Two 96-well plates were prepared at the same time. After shaking for 5 min on a plate shaker, one prepared plate was incubated on ice (at 4 °C) and another plate was incubated at room temperature (22 °C). For both plates the fluorescence was measured at different time points: 5 min, 15 min, 60 min and 120 min.
First, 48 µL Tris–HCl buffer (pH 8.0) was pipetted to the wells, followed by 2 µL of the compound (in DMSO). […] Final solvent (DMSO) concentrations in all conditions amounted to 1%. All plates were shaken for 5 min on a plate shaker, followed by an incubation for 15 min at room temperature. The standard operation procedure (SOP) is provided in Supplementary Information file (Section 3).
Calculations of the ICX, Kd and Ki values of TTR-binding assays are described in the Supplementary Information file (Section 3).
3.7.5 The competitive TTR binding screening assay
3.7.8 Processing data to determine IC50 and calculate Ki value

[2] = target: T2, thyroxine-binding globulin (TBG) (Homo sapiens, UniProt P05543); assay: Competitive TBG-binding assay with FITC-T4 (fluorescence polarization readout); settings: for Ki / IC50 / IC20 / inhibition of the FITC-T4 binding to TBG (in words): RT
T2 construct: purchased Bio-rad Laboratories, Inc. (Veenendaal, The Netherlands)
T2 sequence (P05543 21-415): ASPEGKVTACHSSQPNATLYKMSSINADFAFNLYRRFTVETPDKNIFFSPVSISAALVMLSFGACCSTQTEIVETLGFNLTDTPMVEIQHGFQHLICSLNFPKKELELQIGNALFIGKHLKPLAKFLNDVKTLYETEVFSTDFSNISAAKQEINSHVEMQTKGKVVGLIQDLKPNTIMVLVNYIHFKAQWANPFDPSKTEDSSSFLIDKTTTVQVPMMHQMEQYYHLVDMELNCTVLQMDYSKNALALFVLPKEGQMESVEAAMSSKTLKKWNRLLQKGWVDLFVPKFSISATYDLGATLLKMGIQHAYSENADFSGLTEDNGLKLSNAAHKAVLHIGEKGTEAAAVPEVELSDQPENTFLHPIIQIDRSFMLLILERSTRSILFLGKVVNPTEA
Method: Prepared plates were first shaken for 5 min and then incubated for 15 min at room temperature before being analysed by the microplate reader at FP mode (CLARIOstar Plus, BMG LABTECH).
Accordingly, dilution series of all compounds were prepared in DMSO. First, 24 µL Tris–HCl buffer was pipetted to the wells, followed by 1 µL of the compound stock solution. […] Solvent (DMSO) concentrations in all conditions were 1%. The plates were shaken for 5 min on a plate shaker, followed by an incubation for 15 min at room temperature.
The adjusted polarization was set to a reference value of 35 mP. The adjustment gain values ranged from 1900 to 2200. The plate layout of TBG-binding assay is provided in Supplementary Information file (Section 4).
For the competitive TBG-binding experiments, concentration–response curves were fitted:2 r=rmin+rmax-rmin/1+IC50/X^HillSlope with rmin and rmax being the minimum and maximum anisotropy values, respectively. X is the concentration of added competitor. Equations that were used for the calculation of the ICX and Ki values in the TTR-binding assays (Supplementary Information, Section 3) were also used to determine the ICX and Ki values in TBG-binding assays without any changes, respectively. The single Kd, IC20, IC50 and Ki were determined based on replicates (n) in each experiment, and then the average and confidence intervals were determined based on the Kd, IC20, IC50 and Ki values from sperate experiments (N).
Alternatively, another approach to determine ICX, Kd and Ki values based on a theoretical model of ligand–protein binding biochemistry was taken as described in detail in the Supplementary Information file (Section 5). For this approach, R was used to fit the model to the data. The results obtained from the two approaches were compared in Section 3.4.
S5.2 Ki and IC50 estimation

[3] = target: T1, Human TTR; settings: FITC-T4 110 nM, human TTR 30 nM, 4 °C, 2 h; ref Hamers et al. [2020]; read-out: TTR literature Ki; cited from earlier work
[4] = test system: TTR; settings: ref Ren et al. [2020]; cited from earlier work
[5] = test system: TBG; settings: highest tested concentration 100 µM with 100 nM TBG and 50 nM FITC-T4; ref Ren et al. [2020]; cited from earlier work
[6] = target: TTR; set-up: method as in Ren et al. [2016]; settings: ref Ren et al. [2016]; read-out: TTR literature Ki; cited from earlier work
[7] = target: TBG; set-up: method as in Ren et al. [2016]; settings: ref Ren et al. [2016], cited from earlier work
[8] = target: T2, thyroxine-binding globulin (TBG); assay: Competitive TBG-binding assay with FITC-T4 (fluorescence polarization readout); settings: 37 °C, 15 min, preliminary temperature experiment (N = 2)
[9] = target: Recombinant TTR; set-up: method as in Marchesini et al. [2006]; settings: T4 100 nM, recombinant TTR 18.2 nM, 25 °C, 10 min, ref Marchesini et al. [2006], cited from earlier work
[10] = target: TBG; set-up: method as in Qi et al. [2011]; settings: ref Qi et al. [2011]; read-out: TBG literature Ki; cited from earlier work
[11] = target: TBG; set-up: method as in Ren and Guo [2012]; settings: ref Ren and Guo [2012]; read-out: TBG literature Ki; cited from earlier work
[12] = target: TBG; set-up: method as in Cao et al. [2010]; settings: ref Cao et al. [2010]; read-out: TBG literature Ki; cited from earlier work
[13] = test system: TBG; set-up: method as in Marchesini et al. [2008]; settings: T4-coated chips and TBG; ref Marchesini et al. [2008]; read-out: TBG IC50 (SPR biosensor); cited from earlier work
[14] = 110 nM FITC-T4, 30 nM TTR, RT, 15 min, average [95% CI]
[15] = 5 nM FITC-T4, 10 nM TBG, 15 min, derived from IC20, descriptive model (Graphpad), average [95% CI], read-out: TBG Ki
[16] = 5 nM FITC-T4, 10 nM TBG, 15 min, descriptive model (Graphpad), average [95% CI]
[17] = 5 nM FITC-T4, 10 nM TBG, 15 min, descriptive model (Graphpad), average [95% CI], read-out: TBG IC20
[18] = 5 nM FITC-T4, 10 nM TBG, theoretical model in R, average [95% CI], read-out: TBG IC20, theoretical model
[19] = 5 nM FITC-T4, 10 nM TBG, theoretical model in R, average [95% CI], read-out: TBG Ki values, theoretical model
[20] = TTR IC50, 110 nM FITC-T4, 30 nM TTR, RT, 15 min, average [95% CI]
[21] = TTR IC50 [95% CI], 55 nM FITC-T4, 30 nM TTR, RT (5 min)
[22] = TTR IC50 [95% CI], 55 nM FITC-T4, 30 nM TTR, RT (15 min)
[23] = TTR IC50 [95% CI], 55 nM FITC-T4, 30 nM TTR, RT (60 min)
[24] = TTR IC50 [95% CI], 55 nM FITC-T4, 30 nM TTR, RT (120 min)
[25] = TTR IC50 [95% CI], 55 nM FITC-T4, 30 nM TTR, on ice (120 min)
[26] = TTR Ki [95% CI], 55 nM FITC-T4, 30 nM TTR, RT (5 min)
[27] = TTR Ki [95% CI], 55 nM FITC-T4, 30 nM TTR, RT (15 min)
[28] = TTR Ki [95% CI], 55 nM FITC-T4, 30 nM TTR, RT (60 min)
[29] = TTR Ki [95% CI], 55 nM FITC-T4, 30 nM TTR, on ice (120 min)
[30] = TTR Ki, 110 nM FITC-T4, 30 nM TTR, RT, 15 min, derived from IC20, average [95% CI]

CC(C)(c1cc(Br)c(O)c(Br)c1)c1cc(Br)c(O)c(Br)c1 [TBBPA]
IC20 [1, 14]: 12 nM
IC50 ([1]; 110 nM FITC-T4, 30 nM TTR, RT, 15 min, average [95% CI], read-out: TTR IC50): 22 nM
Ki ([1]; 110 nM FITC-T4, 30 nM TTR, RT, 15 min, derived from IC20, average [95% CI], read-out: TTR Ki): 12 nM
T4EQ concentration (TTR binding) [1]: 3.73 nM
Contribution to T4EQ concentration (TTR binding) [1]: 19.5%
Ki [2, 15]: 3760 nM
IC50 [2, 16]: 68100 nM
IC20 [2, 17]: 7300 nM
IC20 [2, 18]: 6420 nM
Ki [2, 19]: 3310 nM
T4EQ concentration (TBG binding) ([2]; T4EQi = highest human blood concentration x T4-REPi): 2 pM
Contribution to T4EQ concentration (TBG binding) ([2]; mixture of highest human blood concentrations of TBBPA, triclosan and BPA): 0.1%
Ki [3]: 17 nM
binding to TTR (in words) [4]: binding of TBBPA to TTR
binding to TBG (in words) [5]: not to TBG

O=C(O)C(F)(F)C(F)(F)C(F)(F)C(F)(F)C(F)(F)C(F)(F)C(F)(F)F [PFOA, perfluorooctanoic acid]
T4EQ concentration (TTR binding) [1]: 1.26 nM
IC50 [1, 20]: 763 nM
IC50 [1, 21]: 500 nM
IC50 [1, 22]: 496 nM
IC50 [1, 23]: 459 nM
IC50 [1, 24]: 460 nM
IC50 [1, 25]: 461 nM
Ki [1, 26]: 268 nM
Ki [1, 27]: 280 nM
Ki [1, 28]: 304 nM
Ki [1, 29]: 353 nM
Ki [1, 30]: 568 nM
Contribution to T4EQ concentration (TTR binding) [1]: 6.6%
IC20 [1]: 267 nM
inhibition of the FITC-T4 binding to TBG (in words) ([2]; 5 nM FITC-T4, 10 nM TBG): No (or only limited) inhibition
Ki [3]: 1100 nM
Ki [6]: 60 nM

O=C(O)C(F)(F)C(F)(F)C(F)(F)C(F)(F)C(F)(F)C(F)(F)C(F)(F)C(F)(F)C(F)(F)C(F)(F)C(F)(F)C(F)(F)F [PFTA, perfluorotridecanoic acid]
Ki ([7]; read-out: TBG Ki): 23000 nM

OC[C@@H](O)[C@@H](O)[C@H](O)[C@H](O)CO [D-mannitol]
displacement of FITC-T4 from TTR (in words) ([1]; 110 nM FITC-T4, 30 nM TTR, RT): Except for D-mannitol, all compounds displaced FITC-T4 from TTR
inhibition of the FITC-T4 binding to TBG (in words) ([2]; 5 nM FITC-T4, 10 nM TBG): no inhibition

Oc1cc(Cl)ccc1Oc1ccc(Cl)cc1Cl [Triclosan, triclosan]
IC20 [2, 17]: 284 nM
IC20 [2, 18]: 293 nM

N[C@@H](Cc1cc(I)c(Oc2cc(I)c(O)c(I)c2)c(I)c1)C(=O)O [T4, 3,3′,5,5′-tetraiodothyronine]
IC20 [1, 14]: 25 nM
Ki [2, 15]: 2.5 nM
IC50 [2, 16]: 14.9 nM
IC20 [2, 17]: 9.2 nM
IC20 [2, 18]: 5.9 nM
Ki [2, 19]: 0.8 nM
Ki ([2]; 15 min, preliminary temperature experiment (N = 2), read-out: TBG Ki): 2.9 nM
Ki [8]: 2.6 nM
Kd ([9]; read-out: Determined Kd value of ligand with TTR): 9.2 ± 1.2 nM
Ki ([9]; read-out: TTR literature Ki): 13.7 ± 1.3 nM
Ki [10]: 2.2 nM
Ki ([7]; N.D means not detected, read-out: TBG literature Ki): 7 nM
Ki [11]: 17 nM
Ki [12]: 0.6 nM
IC50 [13]: 17.2 nM

O=S(=O)(O)C(F)(F)C(F)(F)C(F)(F)C(F)(F)C(F)(F)C(F)(F)C(F)(F)C(F)(F)F [PFOS, Perfluorooctanesulfonic acid]
T4EQ concentration (TTR binding) [1]: 9.73 nM
IC50 [1, 20]: 271 nM
IC50 [1, 21]: 191 nM
IC50 [1, 22]: 189 nM
IC50 [1, 23]: 196 nM
IC50 [1, 24]: 194 nM
IC50 [1, 25]: 179 nM
Ki [1, 26]: 143 nM
Ki [1, 27]: 133 nM
Ki [1, 28]: 127 nM
Ki ([1]; TTR Ki [95% CI], 55 nM FITC-T4, 30 nM TTR, RT (120 min)): 133 nM
Ki [1, 29]: 171 nM
Ki [1, 30]: 243 nM
Contribution to T4EQ concentration (TTR binding) [1]: 50.9%
IC20 [1]: 118 nM
inhibition of the FITC-T4 binding to TBG (in words) ([2]; 5 nM FITC-T4, 10 nM TBG): No (or only limited) inhibition
Ki [3]: 160 nM

O=C(O)C(F)(F)C(F)(F)C(F)(F)C(F)(F)C(F)(F)C(F)(F)C(F)(F)C(F)(F)C(F)(F)C(F)(F)C(F)(F)C(F)(F)C(F)(F)F [PFTdA, perfluorotetradecanoic acid]
Ki ([7]; read-out: TBG Ki): 26600 nM
